Experimental data from patent US20030166502A1, “Differential regulation of T cell survival and proliferation” (Washington University, priority 2001, published 2003).
Entries after “also recorded” stand apart in the source; their conditions may differ.

Legend:
Format in all cases: cell-based, mice
[1] = system: CD28-deficient DO11.10 splenocytes (T cells); assay: Proliferation assay: tritiated thymidine incorporation of retrovirally infected splenocytes stimulated with OVA(323-339) peptide and APC; details: CD28-deficient T cells reconstituted with the construct; for CD28-dependent proliferation: OVA(323-339) peptide plus T-depleted irradiated Balb/c splenocytes, final 8 h of 72 h culture
Bcl-XL = Bcl-XL expression by Western blot in retrovirally infected T cells; details: cells expressing the construct, anti-CD3 (10 μg/ml) alone or with soluble anti-CD28 (1.0 μg/ml)
IL-2 = IL-2 content of culture supernatants by CTLL-2 bioassay; details: cells expressing the construct; OVA peptide antigen or antigen plus anti-CD28 (1.0 μg/ml); supernatant at 48 hours
Experimental: FIG. 3 contains three bar graphs. Splenocytes from CD28-deficient DO11.10 mice were infected with retrovirus encoding either control (GFPRV) or wild type CD28 (FLCD28) or mutant CD28 constructs and stimulated with OVA(323-339) peptide alone, with CTLA4Ig (10 μg/ml) or with anti-CD28 mAb (1.0 μg/ml). Culture supernatant was harvested at 48 hours and assessed for IL-2 by CTLL-2 bioassay. Shown is the tritiated thymidine incorporation of the CTLL-2 cells. The mean +/−the std deviation of quadruplicate wells is plotted. Data from one representative experiment is shown. A) CTLL-2 assay following stimulation with 0.1 μM OVA. B) CTLL-2 assay following stimulation with 0.03 μM OVA.
Proliferation assays: Wild type or CD28-deficient DO11.10 splenocytes were isolated and infected with retrovirus encoding for either vector alone, full-length CD28, or mutant CD28 proteins. 5×10^4 infected cells were cocultured with 1.5×10^5 T-depleted, irradiated splenocytes from Balb/c mice. Graded doses of OVA(323-339) peptide were added alone or in combination with murine CTLA4Ig (10 μg/ml, provided by Genetics Institute, Cambridge Mass.), anti-CD28 mAb (1.0 μg/ml) or control Ig. Proliferation was determined by tritiated thymidine incorporation for the final 8 hours of a 72 hour culture. All conditions were plated in quadruplicate and the mean +/− standard deviation of the quadruplicate wells was determined. Culture supernatants were harvested from replicate plates at 48 hours and were assayed for IL-2 content by CTLL-2 bioassay. All experiments were repeated a minimum of three times. Representative data from one experiment is presented.
CD28 regulates IL-2 by both transcriptional and post-transcriptional processes (Fraser, J. D., etal., 1991. CD28. Science 251:313. Lindsten, T., et al 1989. Science 244:339). […]

Row | Substance | CD28-dependent proliferation [1] | induction of Bcl-XL protein (Bcl-XL) | CD28-dependent proliferation, % proliferation of controls ([1]; multiple experiments (FIG. 2B)) | IL-2 secretion (IL-2) | induction of Bcl-XL protein (Bcl-XL; listed as CD28PI 87,190A)
1 | FLCD28: full-length wild type murine CD28 expressed by retrovirus (SEQ ID NO: 3) (IWTNSRRLLQSDYMNMTPRRPGLTRKPYQPYAPARDFAAYRP; listed as Homo sapiens) | strong proliferative response | CD28-dependent induction of Bcl-XL protein | – | – | –
2 | CD28d16: CD28 mutant with deletion of the C-terminal 16 amino acids (SEQ ID NO: 5) (IWTNSRRLLQSDYMNMTPRRPGLTRK; listed as Homo sapiens) | did not produce any significant CD28-dependent proliferation | unable to induce Bcl-XL induction | – | – | –
3 | CD28Y170F: mutant CD28 with phenylalanine substituted for the tyrosine at position 170 (SEQ ID NO: 6) (IWTNSRRLLQSDFMNMTPRRPGLTRKPYQPYAPARDFAAYRP; listed as Homo sapiens) | appeared normal | unable to induce Bcl-XL induction | 60-80% | comparable to wild type; also recorded: equivalent levels as cells reconstituted with wild type CD28 | –
4 | CD28Y188F: CD28 mutant which lacked the tyrosine within the PYAP motif (SEQ ID NO: 8) (IWTNSRRLLQSDYMNMTPRRPGLTRKPYQPFAPARDFAAYRP; listed as Homo sapiens) | less effect | – | – | comparable to wild type | –
5 | CD28P187,190A: CD28 mutant with alanine instead of proline residues at position 187 and 190 (SEQ ID NO: 7) (IWTNSRRLLQSDYMNMTPRRPGLTRKPYQAYAAARDFAAYRP; listed as Homo sapiens) | abrogated CD28-dependent proliferation | Bcl-XL induction was induced | – | marked decrease in IL-2 secretion | increased Bcl-XL expression
